pIC50: −log10 of the molar value. Read-outs that look alike come from different tables or passages of the source.
Legend:
trypsin = molecular target: T1, trypsin (Bos taurus, UniProt P00760); assay: In vitro enzyme assay for specificity: trypsin; type: biochemical, bovine; conditions: 0.5 nM enzyme, 30 minute incubation, read-out: IC50 for inhibition of trypsin
T1 construct: bovine pancreatic trypsin; purchased Worthington Biochemical Corp. TRL3; host or cells: bovine pancreas
T1 sequence (P00760 24-246): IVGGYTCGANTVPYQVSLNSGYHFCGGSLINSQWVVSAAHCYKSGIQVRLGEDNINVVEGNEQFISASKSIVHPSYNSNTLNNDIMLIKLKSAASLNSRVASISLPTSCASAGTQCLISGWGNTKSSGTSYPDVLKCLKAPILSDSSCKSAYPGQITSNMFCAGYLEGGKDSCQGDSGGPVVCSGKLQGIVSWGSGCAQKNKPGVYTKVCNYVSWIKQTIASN
Experimental: Trypsin catalytic activity was determined using the chromogenic substrate, S-2222 (benzoyl-L-isoleucine-L-glutamic acid-[gamma-methyl ester]-L-arginine-p-nitroanilide), which was obtained from Kabi Diagnostica. […] Purified (3×-crystallized; TRL3) bovine pancreatic trypsin was obtained from Worthington Biochemical Corp. The enzyme was reconstituted in deionized water and diluted into HBSA prior to assay in which the final concentration was 0.5 nM.

[1] = tested on: thrombotic occlusion of the rat carotid artery; assay: Rat model of FeCl3-induced platelet-dependent arterial thrombosis; type: in vivo; conditions: iv, 1 h, read-out: ED50, dose that prevents complete thrombotic occlusion in 50% of animals tested
thrombin = conditions: cited from earlier work
[2] = tested on: trypsin, plasmin and kallikrein; conditions: literature; cited from earlier work
[3] = literature; cited from earlier work
[4] = literature; cited from earlier work; remark: listed apart in the source
alpha-thrombin = alpha-thrombin (Homo sapiens, UniProt P00734); assay: In vitro enzyme assay for specificity: thrombin; type: biochemical; conditions: first of the two values in the cell (two isomeric pair), or the only value; 0.25 nM enzyme, 30 minute incubation; read-out: IC50 for inhibition of alpha-thrombin amidolytic activity
Experimental: The buffer used for all assays was HBSA (10 mM HEPES, pH 7.5, 150 mM sodium chloride, 0.1% bovine serum albumin). […] Following a 30 minute incubation at ambient temperature, 50 microliters of the substrate at the concentrations specified below, was added to the wells yielding a final total volume of 200 microliters.
Thrombin catalytic activity was determined using the chromogenic substrate Pefachrome t-PA (CH3 SO2 -D-hexahydrotyrosine-glycyl-L-arginine-p-nitroanilide, obtained from Pentapharm Ltd.).

[5] = tested on: atherosclerotic rabbit femoral artery; conditions: following mechanical damage; literature; cited from earlier work
thrombosis = conditions: literature; cited from earlier work
[6] = first of the two values in the cell (two isomeric pair), or the only value

Work on `CCCC(CCC)C(=O)N[C@@H](CC(=O)OC)C(=O)N1CCC[C@H]1C(=O)N[C@H](C=O)CC1CCCN(C(=N)N)C1` (single isomer, unassigned) [Isomer 11B, alpha-N-(propylpentanoyl)-aspartyl(beta-methyl ester)-prolyl-3-[3-piperidyl-(N-guanidino)]-L-alaninal] yielded a pIC50 (trypsin; [6]) of 7.17, a pIC50 (trypsin; second of the two values in the cell (two isomeric pair)) of 6.95 and an ED50 [1] of 5 mg/kg.

For `CC(=O)N[C@H](Cc1ccccc1)C(=O)N1CCC[C@H]1C(=O)N[C@@H](CCCNC(=N)N)B(O)O` [Ac-(D-Phe)-Pro-boroArg, acetyl-D-phenylalanyl-prolyl-boroarginine], the “inhibition of thrombin (in words)” value (thrombin; literature) is given as “inhibit thrombin by directly binding to the active site”.

For `CS(=O)(=O)O.CS(=O)(=O)O.N=C(N)Nc1ccc(C(=O)Oc2ccc3cc(C(=N)N)ccc3c2)cc1` [FUT 175, 6-amidino-2-naphthyl-4-guanidinobenzoate dimethanesulfonate], the “selectivity (in words)” value [2] is listed as “non-selective”.

For `N=C(N)c1ccc(CC(=O)C(=O)O)cc1` [APPA, 4-amidinophenylpyruvic acid], the “pharmacokinetics (in words)” value [3] is listed as “favourable pharmacokinetics”, the “toxicity (in words)” value [4] is listed as “low toxicity” and the “selectivity (in words)” value [2] is listed as “non-selective, inhibiting trypsin, plasmin and kallikrein”.

For `CCCC(CCC)C(=O)N[C@@H](Cc1nnn[nH]1)C(=O)N1CCC[C@H]1C(=O)N[C@H](C=O)CC1CCCN(C(=N)N)C1` (single isomer, unassigned) [Isomer 19B], the pIC50 (trypsin; [6]) was 6.82 and the pIC50 (alpha-thrombin) was 8.51.

For Hirudin, the “smooth muscle proliferation and restenosis (in words)” value [5] is listed as “effectively inhibit smooth muscle proliferation and the associated restenosis”, the “inhibition of thrombin (in words)” value (thrombin; literature) is listed as “one of the most potent inhibitors of thrombin known” and the “antithrombotic effect (in words)” value (thrombosis) is listed as “potent antithrombotic agent in vivo”.

In the case of `CCCC(CCC)C(=O)N[C@@H](CC(=O)OC)C(=O)N1CCC[C@H]1C(=O)N[C@@H](C=O)CC1CCCN(C(=N)N)C1` (single isomer, unassigned) [Isomer 11B(D)], the pIC50 (trypsin; [6]) was 5.59.

In the case of `CC1CNc2c(cccc2S(=O)(=O)N[C@@H](CCCNC(=N)N)C(=O)N2CC[C@@H](C)C[C@@H]2C(=O)O)C1` (stereo partly drawn) [Argatroban, 2R,4R-4-methyl-1-[N-2-(3-methyl-1,2,3,4-tetrahydro-8-quinolinesulfonyl)-L-argininal]-2-piperdinecarboxylic acid], the “inhibition of thrombin (in words)” value (thrombin) is listed as “bind directly to the active site of thrombin” and the “antithrombotic effect (in words)” value (thrombosis) is listed as “potent antithrombotic agent in several experimental models of acute arterial thrombosis”.

For `N=C(N)NCCC[C@@H](C=O)NC(=O)[C@@H]1CCCN1C(=O)[C@H](N)Cc1ccccc1` [D-Phe-Pro-Arg-a1, D-phenylalanyl-prolyl-argininal], the “inhibition of thrombin (in words)” value (thrombin) is given as “inhibit thrombin by directly binding to the active site”.

For `N=C(N)NCCC[C@H](NC(=O)[C@@H]1CCCN1C(=O)[C@H](N)Cc1ccccc1)C(=O)CCl` [P-PACK, D-phenylalanyl-prolyl-arginine-chloromethyl ketone], the “inhibition of thrombin (in words)” value (thrombin) is given as “inhibit thrombin by directly binding to the active site”.

From patent US5883107A, “Arginine mimic derivatives as enzyme inhibitors” (Corvas International, Inc., priority 1995, dated 1999)
